For experiment [1], the target named is T1, 5-HT1A receptors (Rattus norvegicus, UniProt P19327).
T1 construct: Hippocampal tissue from the brains of male Sprague-Dawley rats; from tissue; host or cells: rat hippocampus membranes
T1 sequence (P19327 1-422): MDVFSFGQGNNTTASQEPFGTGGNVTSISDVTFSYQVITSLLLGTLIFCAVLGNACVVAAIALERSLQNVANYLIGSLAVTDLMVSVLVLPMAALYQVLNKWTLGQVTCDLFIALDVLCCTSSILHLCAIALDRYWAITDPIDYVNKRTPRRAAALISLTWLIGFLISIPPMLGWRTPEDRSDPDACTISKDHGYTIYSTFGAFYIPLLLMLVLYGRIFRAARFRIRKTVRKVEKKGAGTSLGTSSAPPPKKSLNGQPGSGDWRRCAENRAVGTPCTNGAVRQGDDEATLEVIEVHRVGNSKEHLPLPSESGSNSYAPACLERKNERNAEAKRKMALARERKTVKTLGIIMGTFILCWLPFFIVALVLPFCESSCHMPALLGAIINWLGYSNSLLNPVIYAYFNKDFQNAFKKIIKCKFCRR
Put plainly: inhibition of [3H]8-OH-DPAT binding to 5-HT1A receptors in rat hippocampal tissue. The following applies: at 10^-6 M; rat hippocampus, [3H]8-OH-DPAT; read-out: % displacement of radio ligand, 5-HT1A. Here is the method: Hippocampal tissue from the brains of male Sprague-Dawley rats (Charles River; weight range 150-250 g) was homogenised in ice-cold 50 mM Tris-HCl buffer (pH 7.7 when measured at 25° C., 1:40 w/v) and centrifuged at 30,000 g at 4° C. for 10 minutes. The pellet was rehomogenised in the same buffer, incubated at 37° C. for 10 minutes and centrifuged at 30,000 g at 4° C. for 10 minutes. The final pellet was resuspended in 50 mM Tris-HCl buffer (pH 7.7) containing 4 mM CaCl2, 0.1% L-ascorbic acid and 10 μM pargyline hydrochloride (equivalent to 6.25 mg wet weight of tissue/ml) and used immediately in the binding assay. Aliquots (400 μl; equivalent to 2.5 mg wet weight of tissue/tube) of this suspension were added to tubes containing the ligand (50 μl; 2 nM) and distilled water (50 μl total binding) or 5-HT (50 μl; 10 μM; non-specific binding) or test compound (50 μl; at a single concentration of 10^-6 M or at 10 concentrations ranging from 10^-11 -10^-3 M). The ligand was [^3 H]8-hydroxy-2-(dipropylamino)tetralin ([^3 H]8-OH-DPAT) and the mixture was incubated at 25° C. for 30 minutes before the incubation was terminated by rapid filtration.
(§1) The filters were washed with ice-cold Tris-HCl buffer and dried. The filters were punched out into vials, scintillation fluid added and radioactivity determined by liquid scintillation counting. The percentage displacement of specific binding of the tritiated ligand was calculated for the single concentration (10^-6 M) of test compound. Displacement curves were then produced for those compounds which displaced ≥50% of specific binding of the tritiated ligand at 10^-6 M using a range of concentrations of the compound. The concentration which gave 50% inhibition of specific binding (IC50) was obtained from the curve. The inhibition coefficient Ki was then calculated using the formula [formula] in which [ligand] is the concentration of the tritiated ligand used and KD is the equilibrium dissociation constant for the ligand.

Experiment [2] deals with α1-adrenoceptors. Put plainly: inhibition of [7-methoxy-3H]prazosin binding to α1-adrenoceptors in rat whole cortical tissue. The following applies: at 10^-6 M; rat whole cortex, [7-methoxy-3H]prazosin; 30 min, 1 µM. On the procedure: Whole cortical tissue from the brains of male Charles River CD rats weighing between 150-250 g were homogenised in ice-cold 50 mM Tris-HCl, pH 7.6 (at 25° C.; 1:40 w/v) and centrifuged at 1000 g at 4° C. for 10 minutes. The supernatant was centrifuged at 30,000 g at 4° C. for 10 minutes. The pellet was rehomogenised in 50 mM Tris-HCl, pH 7.6 (1:40 w/v) and centrifuged at 30,000 g at 4° C. for 10 minutes. The final pellet was resuspended in 50 mM Tris-HCl, pH 7.6 (equivalent to 12.5 mg wet weight of tissue/ml) and used immediately in the binding assay. Aliquots (400 μl; equivalent to 5 mg wet weight of tissue/tube) of this suspension were added to tubes containing the ligand (50 μl; 0.1 nM) and distilled water (50 μl; total binding) or phentolamine (50 μl; 5 μM; non-specific binding) or test compound (50 μl; at a single concentration of 10^-6 M or at 10 concentrations ranging from 10^-11 -10^-3 M). The ligand was [7-methoxy-^3 H]prazosin and the mixture was incubated at 30° C. for 30 minutes before the incubation was terminated by rapid filtration.
as §1

Experiment [3] deals with T2, D2 dopamine receptors (Rattus norvegicus, UniProt P61169).
T2 construct: Striatal tissue from the brains of male Charles River CD rats; from tissue; host or cells: rat striatum membranes
T2 sequence (P61169 whole entry): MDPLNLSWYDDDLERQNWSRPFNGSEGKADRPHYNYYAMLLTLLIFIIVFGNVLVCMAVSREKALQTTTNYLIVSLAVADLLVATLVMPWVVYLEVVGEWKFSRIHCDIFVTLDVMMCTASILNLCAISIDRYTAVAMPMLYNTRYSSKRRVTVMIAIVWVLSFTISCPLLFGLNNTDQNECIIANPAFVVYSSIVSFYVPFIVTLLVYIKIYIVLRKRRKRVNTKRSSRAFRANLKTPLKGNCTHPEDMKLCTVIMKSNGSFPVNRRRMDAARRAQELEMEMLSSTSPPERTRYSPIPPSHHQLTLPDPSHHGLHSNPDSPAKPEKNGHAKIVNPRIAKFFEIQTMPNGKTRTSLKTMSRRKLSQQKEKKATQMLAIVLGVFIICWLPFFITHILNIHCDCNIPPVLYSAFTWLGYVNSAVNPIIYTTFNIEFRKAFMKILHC
Kind of experiment: inhibition of tritiated (S)-sulpiride binding to D2 dopamine receptors in rat striatal tissue. The settings on record: at 10^-6 M; rat striatum, tritiated (S)-sulpiride; read-out: % displacement of radio ligand, D2. On the procedure: Striatal tissue from the brains of male Charles River CD rats weighing between 140-250 g were homogenised in ice-cold 50 mM Tris-HCl buffer (pH 7.7 when measured at 25° C.) and centrifuged at 40,000 g for 10 minutes. The pellet was resuspended in Tris salts buffer (50 mM Tris-HCl buffer containing 120 mM NaCl, 5 mM KCl, 2 mM CaCl2 and 1 mM MgCl2 with the addition of 6 mM ascorbic acid; pH 7.7 when measured at 25° C.), and again centrifuged at 40,000 g for 10 minutes. The final pellet was stored at -80° C. Before each test the pellet was resuspended in Tris salts buffer (equivalent to 2 mg wet weight of tissue/ml). Aliquots (720 μl; equivalent to 1.44 mg wet weight of tissue/tube) of this suspension were then added to tubes containing the ligand (40 μl; 1 nM) and Tris salts buffer (40 μl; total binding) or spiroperidol (40 μl; 10 nM; non-specific binding) or test compound (40 μl; at a single concentration of 10^-6 M or at 6 concentrations ranging from 10^-11 -10^-4 M). The ligand was tritiated (S)-sulpiride and the mixture was incubated at 4° C. for 40 minutes before the incubation was terminated by rapid filtration.
The filters were washed with ice-cold Tris-HCl buffer and dried. The filters were punched out in to vials, scintillation fluid added and were left for about 20 hours before being counted by scintillation spectrophotometry. The percentage displacement of specific binding of the tritiated ligand was calculated for the single concentration (10^-6 M) of test compound. Displacement curves were then produced over a range of concentrations for those compounds which displaced ≥50% of specific binding of the tritiated ligand at 10^-6 M. The concentration which gave a 50% inhibition of specific binding (IC50) was obtained from the curve. The inhibition coefficient Ki was then calculated using the formula [formula] in [ligand] is the concentration of the tritiated ligand used and KD is the 2 equilibrium dissociation constant for the ligand.

`Cc1ncccc1C(=O)NCC1CCN(C[C@H]2COc3ccc(Br)cc3O2)CC1` [Example 36, (S)-N-{[1-(7-bromo-1,4-benzodioxan-2-ylmethyl)-4-piperidyl]methyl}-2-methylpyridine-3-carboxamide]: the inhibition at 1 µM in experiment [1] was found to be 80%; in experiment [3], 98%. Further, the “% displacement of radio ligand, α1” value in experiment [2] was determined as 54%.

On to `O=C(NCC1CCN(C[C@H]2COc3ccc(Br)cc3O2)CC1)c1ccc(-n2cccc2)nc1` [Example 37, (S)-N-{[1-(7-bromo-1,4-benzodioxan-2-ylmethyl)-4-piperidyl]methyl}-6-(1-pyrrolyl)pyridine-3-carboxamide], for which the inhibition at 1 µM in experiment [1] was 85%; in experiment [3], 97%. Moreover, the “% displacement of radio ligand, α1” value in experiment [2] is 66%.

As to `CSc1ncccc1C(=O)NCC1CCN(C[C@H]2COc3ccc(Br)cc3O2)CC1` [Example 38, (S)-N-{[1-(7-bromo-1,4-benzodioxan-2-ylmethyl)-4-piperidyl]methyl}-2-(methylthio)pyridine-3-carboxamide], the figures for the inhibition at 1 µM in experiment [1] and in experiment [3] were 88% and 99%, respectively. Also, in experiment [2], the “% displacement of radio ligand, α1” value is 51%.

As for `O=C(NCC1CCN(C[C@H]2COc3ccc(Br)cc3O2)CC1)c1cncc(Br)c1` [Example 39, (S)-5-bromo-N-{[1-(7-bromo-1,4-benzodioxan-2-ylmethyl)-4-piperidyl]methyl}pyridine-3-carboxamide], the inhibition at 1 µM in experiment [1] was determined as 85%; in experiment [3], 87%. The “% displacement of radio ligand, α1” value in experiment [2] came to 43%.

Turning to `O=C(NCC1CCN(C[C@H]2COc3ccc(Cl)cc3O2)CC1)c1ccc(-n2cccc2)nc1` [Example 40, (S)-N-{[1-(7-chloro-1,4-benzodioxan-2-ylmethyl)-4-piperidyl]methyl}-6-(1-pyrrolyl)pyridine-3-carboxamide], the results for the inhibition at 1 µM in experiment [1] and in experiment [3] were 87% and 91%, respectively. Moreover, the “% displacement of radio ligand, α1” value in experiment [2] came to 60%.

`CSc1ncccc1C(=O)NCC1CCN(C[C@H]2COc3ccc(Cl)cc3O2)CC1` [Example 41, (S)-N-{[1-(7-chloro-1,4-benzodioxan-2-ylmethyl)-4-piperidyl]methyl}-2-(methylthio)pyridine-3-carboxamide]: the inhibition at 1 µM in experiment [1] turned out to be 68%; in experiment [3], 70%. In experiment [2], the “% displacement of radio ligand, α1” value amounted to 29%.

As for `O=C(NCC1CCN(C[C@H]2COc3ccc(Cl)cc3O2)CC1)c1cncc(Br)c1` [Example 42, (S)-5-bromo-N-{[1-(7-chloro-1,4-benzodioxan-2-ylmethyl)-4-piperidyl]methyl}pyridine-3-carboxamide], the inhibition at 1 µM in experiment [1] was determined as 92%; in experiment [3], 91%. Further, the “% displacement of radio ligand, α1” value in experiment [2] is given as 62%.

For the compound `O=C(NCC1CCN(C[C@H]2COc3ccc(F)cc3O2)CC1)c1cccnc1` [Example 43, (S)-N-{[1-(7-fluoro-1,4-benzodioxan-2-ylmethyl)-4-piperidyl]methyl}pyridine-3-carboxamide], the results for the inhibition at 1 µM in experiment [1] and in experiment [3] were 76% and 68%, respectively. In addition, in experiment [2], the “% displacement of radio ligand, α1” value was 59%.

Take `CSc1ncccc1C(=O)NCC1CCN(C[C@H]2COc3ccc(F)cc3O2)CC1` [Example 44, (S)-N-{[1-(7-fluoro-1,4-benzodioxan-2-ylmethyl)-4-piperidyl]methyl}-2-(methylthio)pyridine-3-carboxamide]: the inhibition at 1 µM in experiment [1] is 64%; in experiment [3], 57%. The “% displacement of radio ligand, α1” value in experiment [2] is 38%.

As for `O=C(NCC1CCN(C[C@H]2COc3cccc(C(F)(F)F)c3O2)CC1)c1cccnc1` [Example 45, (S)-N-{[1-(8-trifluoromethyl-1,4-benzodioxan-2-ylmethyl)-4-piperidyl]methyl}pyridine-3-carboxamide], the figures for the inhibition at 1 µM in experiment [1] and in experiment [3] were 80% and 97%, respectively. Moreover, the “% displacement of radio ligand, α1” value in experiment [2] amounted to 94%.

For `Cc1ncccc1C(=O)NCC1CCN(C[C@H]2COc3cccc(C(F)(F)F)c3O2)CC1` [Example 46, (S)-2-methyl-N-{[1-(8-trifluoromethyl-1,4-benzodioxan-2-ylmethyl)-4-piperidyl]methyl}pyridine-3-carboxamide], the values for the inhibition at 1 µM in experiment [1] and in experiment [3] were 86% and 104%, respectively. Also, the “% displacement of radio ligand, α1” value in experiment [2] amounted to 98%.

As for `O=C(NCC1CCN(C[C@H]2COc3cccc(C(F)(F)F)c3O2)CC1)c1ccc(-n2cccc2)nc1` [Example 47, (S)-6-(1-pyrrolyl)-N-{[1-(8-trifluoromethyl-1,4-benzodioxan-2-ylmethyl)-4-piperidyl]methyl}pyridine-3-carboxamide], the inhibition at 1 µM in experiment [1] turned out to be 75%; in experiment [3], 100%. Further, in experiment [2], the “% displacement of radio ligand, α1” value was found to be 94%.

In the case of `CSc1ncccc1C(=O)NCC1CCN(C[C@H]2COc3cccc(C(F)(F)F)c3O2)CC1` [Example 48, (S)-2-(methylthio)-N-{[1-(8-trifluoromethyl-1,4-benzodioxan-2-ylmethyl)-4-piperidyl]methyl}pyridine-3-carboxamide], the results for the inhibition at 1 µM in experiment [1] and in experiment [3] were 80% and 101%, respectively. In addition, the “% displacement of radio ligand, α1” value in experiment [2] turned out to be 93%.

Consider `O=C(NCC1CCN(C[C@H]2COc3cccc(C(F)(F)F)c3O2)CC1)c1cncc(Br)c1` [Example 49, (S)-5-bromo-N-{[1-(8-trifluoromethyl-1,4-benzodioxan-2-ylmethyl)-4-piperidyl]methyl}pyridine-3-carboxamide], for which the inhibition at 1 µM in experiment [1] stood at 88%; in experiment [3], 99%. Also, the “% displacement of radio ligand, α1” value in experiment [2] was found to be 93%.

These data come from patent US5935973A, “Heterocyclcarboxamide derivatives and their use as therapeutic agents” (Knoll Aktiengesellschaft, priority 1995, dated 1999).
